Assays:
[1] = target: T1, telomerase (MCF-7 cell lysates) (Homo sapiens, UniProt O14746); assay: TRAP assay in cell lysates (PCR-based telomerase activity assay); format: biochemical; settings: TRAP assay in MCF7 cell lysate in vitro; read-out: IC50
T1 construct: endogenous in cells; host or cells: MCF-7
Excerpt: In developing a preliminary structural activity relationship (SAR) for the chrologs, we divided the structure of the pyran into four main components: (1)C-2 substituents (carboxylic acid of chrolactomycin); (2) C-6 substituents (chrolactomycin macrolide loop); (3) C-3 substituents (fused γ-lactone of chrolactomycin) and (4) inclusion of the exocyclic methylene group. We carried out systematic modifications of each structural unit and evaluated the effects on telomerase activity as measured by a PCR-based telomerase activity assay (TRAP assay).^16
Telomeric Repeat Amplification Protocol Assay. The telomeric repeat amplification protocol (TRAP) assay was performed using the TRAPeze RT Telomerase Detection Kit (EMD Millipore) and iTaq DNA polymerase (Bio-Rad) according to the manufacturer's protocol.
Cell Lysate TRAP Analysis. MCF-7, HeLa, ACHN, MDA-MB231 and A549 cells were cultured in DMEM media supplemented with 10% Fetal Bovine Serum (FBS), 1% pen/strep and with 5% CO2 and 37° C. Cells were plated in 2×T75 flasks and cultured for 3 days. Flasks were rinsed twice with PBS and treated with 0.05% trypsin-EDTA (Thermo Fisher) to detach cells. […] Cell extracts were transferred to microcentrifuge tubes, 200 μl/tube, and centrifuged at 12,000×g for 20 min at 4° C. to remove cell debris. Stock solutions of compounds were made in DMSO with a concentration of 100 mM and a […] dilution was performed in DMSO in a 96-well plate to produce compound solutions of 100, 10, 1, 0.1, 0.01, and 0.001 mM (1000× of the final concentration). The 1000× stock solutions of the compound samples were transferred to a 96-well plate using the Echo 550 (Labcyte) and then diluted with the cell extracts to yield final compound concentrations of 100, 10, 1, 0.1, 0.01, and 0.001 μM. The plate was covered and shaken at room temperature for 30 min. For TRAPeze reactions, a “master mix” was prepared according to the TRAPeze protocol, containing 5 μl of the TRAPeze reaction mix; 0.4 μl Taq polymerase; 17.6 μl PCR grade, nuclease-free water. The master mix and treated cell extracts were transferred using the Mosquito Crystal Liquid Handling System (TTP Labtech) into separate wells in a white, 384-well RT-PCR plate. Each well contained 1.2 μl of the master mix and 1.2 μl of the treated cell extract to give a final volume of 2.4 μl, with two duplicates for each sample. The RT-PCR plate was then sealed and centrifuged for 5 min. A sample containing only CHAPS Lysis Buffer was included as negative control. The TSR8 standards were included to generate a standard curve. Samples were amplified in a CFW384 RT-PCR (BioRad) detection system with PCR parameters of 30 min at 30° C. for 1 cycle, 2 min at 95° C. for 1 cycle, and then 45 cycles of 15 s at 94° C., 60 s at 59° C., and 10 s at 45° C. Real-time fluorescent data was obtained during the 10 s at 45° C. step. The number of cycles at which the fluorescence level reached a threshold (Ct) was averaged between the duplicates for each sample. Using a calibration curve obtained from the TSR8 standards, a linear equation was obtained to convert the Ct values into arbitrary telomerase activity units, which were plotted as a function of compound concentration to construct dose-response curves and calculate IC50.

[2] = target: T2, endogenous telomerase in MCF-7 and A549 cells (Homo sapiens, UniProt O14746); assay: Endogenous telomerase activity after cell treatment (primer extension); format: cell-based; settings: 10 μM, 24 h
T2 construct: endogenous in cells; host or cells: MCF-7 and A549
T2 sequence (O14746 whole entry): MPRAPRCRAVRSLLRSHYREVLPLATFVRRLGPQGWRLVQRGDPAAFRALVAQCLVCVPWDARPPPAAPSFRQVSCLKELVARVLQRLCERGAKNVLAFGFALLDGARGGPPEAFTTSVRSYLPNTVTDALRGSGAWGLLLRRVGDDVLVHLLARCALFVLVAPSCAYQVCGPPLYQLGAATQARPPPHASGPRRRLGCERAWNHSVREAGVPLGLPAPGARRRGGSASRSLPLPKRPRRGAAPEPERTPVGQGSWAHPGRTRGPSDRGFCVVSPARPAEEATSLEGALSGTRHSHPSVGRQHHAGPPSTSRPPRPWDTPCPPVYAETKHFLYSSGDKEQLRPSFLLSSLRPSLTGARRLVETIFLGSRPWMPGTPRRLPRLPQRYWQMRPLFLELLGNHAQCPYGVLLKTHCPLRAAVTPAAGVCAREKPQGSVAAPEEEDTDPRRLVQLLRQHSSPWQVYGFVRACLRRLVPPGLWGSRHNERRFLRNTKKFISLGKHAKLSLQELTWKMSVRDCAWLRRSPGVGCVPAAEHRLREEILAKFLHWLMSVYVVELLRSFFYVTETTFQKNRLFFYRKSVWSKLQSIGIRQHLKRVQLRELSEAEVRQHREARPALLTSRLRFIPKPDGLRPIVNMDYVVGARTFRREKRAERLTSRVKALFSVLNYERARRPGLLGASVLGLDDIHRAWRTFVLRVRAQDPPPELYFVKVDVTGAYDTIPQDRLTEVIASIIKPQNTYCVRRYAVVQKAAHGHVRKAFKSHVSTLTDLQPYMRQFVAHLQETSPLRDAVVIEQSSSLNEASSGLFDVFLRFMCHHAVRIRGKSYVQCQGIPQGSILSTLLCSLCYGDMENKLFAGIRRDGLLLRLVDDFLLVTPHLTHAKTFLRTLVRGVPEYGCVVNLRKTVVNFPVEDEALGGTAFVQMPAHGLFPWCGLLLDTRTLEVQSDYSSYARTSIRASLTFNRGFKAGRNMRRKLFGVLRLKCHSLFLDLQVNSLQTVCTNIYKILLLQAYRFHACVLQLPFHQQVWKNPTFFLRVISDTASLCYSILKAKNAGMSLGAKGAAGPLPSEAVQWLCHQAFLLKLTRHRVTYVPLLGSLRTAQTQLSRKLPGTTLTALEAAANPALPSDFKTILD
T2 sequence (O60832 whole entry partner): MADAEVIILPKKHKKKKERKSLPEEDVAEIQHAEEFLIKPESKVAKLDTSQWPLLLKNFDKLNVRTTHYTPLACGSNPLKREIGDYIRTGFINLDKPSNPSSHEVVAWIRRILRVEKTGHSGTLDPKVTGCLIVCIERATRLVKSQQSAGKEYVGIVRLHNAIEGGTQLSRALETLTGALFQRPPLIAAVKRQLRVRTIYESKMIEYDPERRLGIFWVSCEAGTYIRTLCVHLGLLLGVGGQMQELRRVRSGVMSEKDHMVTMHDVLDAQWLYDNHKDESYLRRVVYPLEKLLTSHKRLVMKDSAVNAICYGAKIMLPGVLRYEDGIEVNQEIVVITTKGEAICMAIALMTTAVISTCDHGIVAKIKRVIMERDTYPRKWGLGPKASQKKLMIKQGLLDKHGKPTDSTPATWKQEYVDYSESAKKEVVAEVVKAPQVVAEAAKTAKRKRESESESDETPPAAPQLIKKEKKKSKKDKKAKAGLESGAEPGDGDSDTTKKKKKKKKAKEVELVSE
T2 sequence (Q9NPE3 whole entry partner): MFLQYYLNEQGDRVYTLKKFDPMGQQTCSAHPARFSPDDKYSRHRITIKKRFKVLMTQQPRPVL
T2 sequence (Q9NX24 whole entry partner): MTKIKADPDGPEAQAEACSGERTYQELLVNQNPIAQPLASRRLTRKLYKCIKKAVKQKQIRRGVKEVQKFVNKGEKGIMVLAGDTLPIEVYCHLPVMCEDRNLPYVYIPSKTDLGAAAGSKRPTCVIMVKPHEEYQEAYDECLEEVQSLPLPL
T2 sequence (Q9NY12 whole entry partner): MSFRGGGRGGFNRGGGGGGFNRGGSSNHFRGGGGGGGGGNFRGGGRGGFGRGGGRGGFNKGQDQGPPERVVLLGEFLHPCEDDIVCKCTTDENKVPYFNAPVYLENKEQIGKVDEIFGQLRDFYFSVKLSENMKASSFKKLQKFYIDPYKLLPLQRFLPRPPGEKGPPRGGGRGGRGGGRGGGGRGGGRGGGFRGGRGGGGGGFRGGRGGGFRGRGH
T2 sequence (Q9BUR4 whole entry partner): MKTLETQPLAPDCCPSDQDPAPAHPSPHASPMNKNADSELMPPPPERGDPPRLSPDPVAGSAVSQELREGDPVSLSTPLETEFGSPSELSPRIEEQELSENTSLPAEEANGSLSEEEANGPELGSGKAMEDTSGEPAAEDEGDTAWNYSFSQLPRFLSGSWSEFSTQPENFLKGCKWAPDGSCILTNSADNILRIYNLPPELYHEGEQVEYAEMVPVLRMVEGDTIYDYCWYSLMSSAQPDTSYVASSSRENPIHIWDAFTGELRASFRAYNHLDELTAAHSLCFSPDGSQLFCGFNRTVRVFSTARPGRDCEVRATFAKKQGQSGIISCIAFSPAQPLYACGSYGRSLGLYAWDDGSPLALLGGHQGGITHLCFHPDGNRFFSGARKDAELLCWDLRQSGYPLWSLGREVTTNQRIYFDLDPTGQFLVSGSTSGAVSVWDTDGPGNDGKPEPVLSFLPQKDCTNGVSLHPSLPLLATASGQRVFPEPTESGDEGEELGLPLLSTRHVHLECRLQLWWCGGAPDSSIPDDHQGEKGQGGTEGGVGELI
Procedure: For FIG. 4C, the control or treated cells were prepared and collected as pellets of 5×10^6 cells each at NW and pellets were shipped to CMRI on dry ice. Frozen cell pellets were thawed on wet ice and suspended in 1 mL telomerase buffer supplemented with 1 mM PMSF. Endogenous telomerase was immunopurified and assayed as described.

MCF7 cells = assay: Cell viability (CellTiter-Glo), telomerase-positive cells; format: cell-based, human; settings: Homo sapiens, read-out: IC50, loss of viability
Procedure: Cell Viability Measurements. MCF-7, HeLa, MDA-MB231 and A549 cells were cultured in DMEM media supplemented with 10% Fetal Bovine Serum (FBS), 1% pen/strep and with 5% CO2 and 37° C. Cells were plated in 96 well plates and allowed to attach for 24 h. Media was removed, and fresh media containing various concentrations of compound was added, and the plate was incubated for 24 h. The plate was removed from the incubator and allowed to equilibrate to room temperature for 30 min. 50 μl of freshly prepared CellTiter-Glo (Promega) reagent was added, and the plate was mixed on an orbital shaker for 10 min to induce cell lysis and stabilize luminescent signal. The luminescence was recorded on a PerkinElmer Enspire multimode plate reader.

telomerase in MCF7 cells = target: T3, telomerase in MCF7 cells (Homo sapiens, UniProt O14746); assay: Compound washout TRAP analysis; format: cell-based
T3 construct: endogenous in cells; host or cells: MCF-7
T3 sequence (O14746 whole entry): as the sequence (O14746 whole entry) above
T3 sequence (O60832 whole entry partner): as the sequence (O60832 whole entry partner) above
T3 sequence (Q9NPE3 whole entry partner): as the sequence (Q9NPE3 whole entry partner) above
T3 sequence (Q9NX24 whole entry partner): as the sequence (Q9NX24 whole entry partner) above
T3 sequence (Q9NY12 whole entry partner): as the sequence (Q9NY12 whole entry partner) above
T3 sequence (Q9BUR4 whole entry partner): as the sequence (Q9BUR4 whole entry partner) above
Procedure: Compound Washout TRAP analysis. MCF-7 cells were plated in 96 well plates and allowed to attach for 24 h. Media was removed, and fresh media containing various concentrations of compound was added, and the plate was incubated for 24 h. Media was removed, cells were washed 2 times with PBS, and fresh media without compound was added. Cells were incubated at 37° C. for an additional “X” hours. […] The cell extract was then centrifuged at 12,000 g for 20 min at 4° C. to remove cell debris. Note: “fresh” media constitutes media supplemented with 10% Fetal Bovine Serum (FBS) and 1% pen/strep that has not been previously used for cell culture (e.g., not conditioned media”). TRAP analysis was conducted as above.

MCF-7 cells = assay: Compound washout cell viability; format: cell-based, human; settings: washed, fresh media, 24 h
Procedure: Compound Washout Cell Viability Measurements. MCF-7 cells were plated in 96 well plates and allowed to attach for 24 h. Media was removed, and fresh media containing various concentrations of compound was added, and the plate was incubated for 24 h. Media was removed, cells were washed 2 times with PBS, and fresh media without compound was added. Cells were incubated at 37° C. for an additional “X” h and analyzed as above. Note: “fresh” media constitutes media supplemented with 10% Fetal Bovine Serum (FBS) and 1% pen/strep that has not been previously used for cell culture (e.g., not conditioned media).

Lipophilicity = format: physicochemical; settings: in words

T1 sequence (O14746 whole entry): as the sequence (O14746 whole entry) above
T1 sequence (O60832 whole entry partner): as the sequence (O60832 whole entry partner) above
T1 sequence (Q9NPE3 whole entry partner): as the sequence (Q9NPE3 whole entry partner) above
T1 sequence (Q9NX24 whole entry partner): as the sequence (Q9NX24 whole entry partner) above
T1 sequence (Q9NY12 whole entry partner): as the sequence (Q9NY12 whole entry partner) above
T1 sequence (Q9BUR4 whole entry partner): as the sequence (Q9BUR4 whole entry partner) above

C=C1C(=O)[C@](C)(C(=O)OC)[C@H](CCc2cn(Cc3ccc(F)cc3F)nn2)O[C@@H]1C [NU-1, methyl (2S,3R,6R)-2-(2-(1-(2,4-difluorobenzyl)-1H-1,2,3-triazol-4-yl)ethyl)-3,6-dimethyl-5 methylene-4-oxotetrahydro-2H-pyran-3-carboxylate]
IC50 [1]: 0.09 µM
endogenous telomerase activity [2]: completely eliminated
IC50 (MCF7 cells): 27 µM
telomerase activity after washout (telomerase in MCF7 cells; MCF7 cells washed, 4 h recovery): remained blocked
telomerase activity after washout (telomerase in MCF7 cells; washed, fresh media, 24 h): did not restore
viability after washout (MCF-7 cells): did not restore
lipophilicity (Lipophilicity): favorable
